Assay results taken from PubChem BioAssay (NCI).
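All cell lines were grown in 96-well plates and treated with compound for 48 hours. Here, GI50 denotes the concentration required for 50% inhibition of growth. The concentration for full growth arrest is given as TGI.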

Legend:
Assay in all cases: growth of human tumour cells (NCI), 48 h
KM12 colon = system: KM12 colon
K-562 leukemia = system: K-562 leukemia
NCI-H522 lung = system: NCI-H522 lung
SF-268 CNS = system: SF-268 CNS
TK-10 renal = system: TK-10 renal
COLO 205 colon = system: COLO 205 colon
SNB-75 CNS = system: SNB-75 CNS
SR leukemia = system: SR leukemia
HS 578T breast = system: HS 578T breast
UO-31 renal = system: UO-31 renal
SK-OV-3 ovarian = system: SK-OV-3 ovarian
DU-145 prostate = system: DU-145 prostate
MOLT-4 leukemia = system: MOLT-4 leukemia
A549 NSCLC = system: A549 NSCLC
OVCAR-4 ovarian = system: OVCAR-4 ovarian
U251 CNS = system: U251 CNS
EKVX NSCLC = system: EKVX NSCLC
HCT-15 colon = system: HCT-15 colon
SK-MEL-5 melanoma = system: SK-MEL-5 melanoma
MDA-MB-435 = system: MDA-MB-435
NCI-H460 lung = system: NCI-H460 lung
OVCAR-5 ovarian = system: OVCAR-5 ovarian
SF-295 CNS = system: SF-295 CNS
RXF 393 renal = system: RXF 393 renal
ACHN renal = system: ACHN renal
SN12C renal = system: SN12C renal
SW-620 colon = system: SW-620 colon
T-47D breast = system: T-47D breast
MALME-3M melanoma = system: MALME-3M melanoma
NCI-H226 lung = system: NCI-H226 lung
IGROV1 ovarian = system: IGROV1 ovarian
786-0 renal = system: 786-0 renal
HOP-92 NSCLC = system: HOP-92 NSCLC
SK-MEL-28 melanoma = system: SK-MEL-28 melanoma
PC-3 prostate = system: PC-3 prostate
A498 renal = system: A498 renal
MCF7 breast = system: MCF7 breast
SNB-19 CNS = system: SNB-19 CNS
HT29 colon = system: HT29 colon
NCI-H23 lung = system: NCI-H23 lung
HOP-62 NSCLC = system: HOP-62 NSCLC
CCRF-CEM leukemia = system: CCRF-CEM leukemia
OVCAR-8 ovarian = system: OVCAR-8 ovarian
RPMI-8226 leukemia = system: RPMI-8226 leukemia
HCT-116 colon = system: HCT-116 colon
BT-549 breast = system: BT-549 breast
UACC-62 melanoma = system: UACC-62 melanoma
M14 melanoma = system: M14 melanoma
HL-60(TB) leukemia = system: HL-60(TB) leukemia
NCI/ADR-RES ovarian = system: NCI/ADR-RES ovarian
SF-539 CNS = system: SF-539 CNS
UACC-257 melanoma = system: UACC-257 melanoma
HCC-2998 colon = system: HCC-2998 colon
SK-MEL-2 melanoma = system: SK-MEL-2 melanoma

Molecule `CCOC(=O)c1c(NC(=O)c2ccccc2C(F)(F)F)sc2c1CCC(=O)C2` has a GI50 (KM12 colon) of 2.69 µM, a TGI (KM12 colon) of 7.21 µM and a GI50 (K-562 leukemia) of 1.98 µM. The TGI (K-562 leukemia) was > 100 µM, the GI50 (NCI-H522 lung) was 1.92 µM and the TGI (NCI-H522 lung) was 4.82 µM. The GI50 (SF-268 CNS) was 3.96 µM, the TGI (SF-268 CNS) was > 100 µM and the GI50 (TK-10 renal) was 5.36 µM. For the same molecule, the TGI (TK-10 renal) was > 100 µM, the GI50 (COLO 205 colon) was 2.12 µM and the TGI (COLO 205 colon) was 4.12 µM. The GI50 (SNB-75 CNS) was 1.39 µM, the TGI (SNB-75 CNS) was 7.14 µM and the GI50 (SR leukemia) was 2.33 µM. The TGI (SR leukemia) was > 100 µM, the GI50 (HS 578T breast) was 4.66 µM and the TGI (HS 578T breast) was > 100 µM. For the same molecule, the GI50 (UO-31 renal) was 2.3 µM, the TGI (UO-31 renal) was 7.57 µM and the GI50 (SK-OV-3 ovarian) was 3.18 µM. For the same molecule, the TGI (SK-OV-3 ovarian) was > 100 µM, the GI50 (DU-145 prostate) was 4.44 µM and the TGI (DU-145 prostate) was > 100 µM. The GI50 (MOLT-4 leukemia) was 3.54 µM, the TGI (MOLT-4 leukemia) was > 100 µM and the GI50 (A549 NSCLC) was 3.51 µM. For the same molecule, the TGI (A549 NSCLC) was > 100 µM, the GI50 (OVCAR-4 ovarian) was 3.79 µM and the TGI (OVCAR-4 ovarian) was > 100 µM. It also gave a GI50 (U251 CNS) of 0.792 µM, a TGI (U251 CNS) of 12 µM and a GI50 (EKVX NSCLC) of 3.41 µM. It also gave a TGI (EKVX NSCLC) of 23.6 µM, a GI50 (HCT-15 colon) of 2.72 µM and a TGI (HCT-15 colon) of 10.3 µM. It also gave a GI50 (SK-MEL-5 melanoma) of 1.88 µM, a TGI (SK-MEL-5 melanoma) of 3.64 µM and a GI50 (MDA-MB-435) of 3.18 µM. It also gave a TGI (MDA-MB-435) of 11.6 µM, a GI50 (NCI-H460 lung) of 3.48 µM and a TGI (NCI-H460 lung) of 12.1 µM. For the same molecule, the GI50 (OVCAR-5 ovarian) was 2.52 µM, the TGI (OVCAR-5 ovarian) was 7.1 µM and the GI50 (SF-295 CNS) was 2.58 µM. For the same molecule, the TGI (SF-295 CNS) was 7.64 µM, the GI50 (RXF 393 renal) was 2.39 µM and the TGI (RXF 393 renal) was 8.09 µM. It also gave a GI50 (ACHN renal) of 3.33 µM, a TGI (ACHN renal) of 10.4 µM and a GI50 (SN12C renal) of 3.06 µM. The TGI (SN12C renal) was > 100 µM, the GI50 (SW-620 colon) was 2.64 µM and the TGI (SW-620 colon) was 10 µM. For the same molecule, the GI50 (T-47D breast) was 3.12 µM, the TGI (T-47D breast) was > 100 µM and the GI50 (MALME-3M melanoma) was 2.78 µM. The TGI (MALME-3M melanoma) was 8 µM, the GI50 (NCI-H226 lung) was 2.94 µM and the TGI (NCI-H226 lung) was 9.47 µM. For the same molecule, the GI50 (IGROV1 ovarian) was 3.09 µM, the TGI (IGROV1 ovarian) was 10.3 µM and the GI50 (786-0 renal) was 4.63 µM. The TGI (786-0 renal) was > 100 µM, the GI50 (HOP-92 NSCLC) was 1.82 µM and the TGI (HOP-92 NSCLC) was 5.52 µM. The GI50 (SK-MEL-28 melanoma) was 4.51 µM, the TGI (SK-MEL-28 melanoma) was 65 µM and the GI50 (PC-3 prostate) was 2.45 µM. For the same molecule, the TGI (PC-3 prostate) was 7.68 µM, the GI50 (A498 renal) was 11.5 µM and the TGI (A498 renal) was 49.2 µM. For the same molecule, the GI50 (MCF7 breast) was 2.79 µM, the TGI (MCF7 breast) was 30.2 µM and the GI50 (SNB-19 CNS) was 3.85 µM. The TGI (SNB-19 CNS) was 41.2 µM, the GI50 (HT29 colon) was 3.1 µM and the TGI (HT29 colon) was 8.75 µM. For the same molecule, the GI50 (NCI-H23 lung) was 2.93 µM, the TGI (NCI-H23 lung) was 9.25 µM and the GI50 (HOP-62 NSCLC) was 3.71 µM. For the same molecule, the TGI (HOP-62 NSCLC) was > 100 µM, the GI50 (CCRF-CEM leukemia) was 3.24 µM and the TGI (CCRF-CEM leukemia) was > 100 µM. For the same molecule, the GI50 (OVCAR-8 ovarian) was 3.4 µM, the TGI (OVCAR-8 ovarian) was > 100 µM and the GI50 (RPMI-8226 leukemia) was 1.95 µM. The TGI (RPMI-8226 leukemia) was 5.46 µM, the GI50 (HCT-116 colon) was 3.29 µM and the TGI (HCT-116 colon) was 12.6 µM. For the same molecule, the GI50 (BT-549 breast) was 3.35 µM, the TGI (BT-549 breast) was > 100 µM and the GI50 (UACC-62 melanoma) was 2.83 µM. The TGI (UACC-62 melanoma) was 11.5 µM, the GI50 (M14 melanoma) was 3.94 µM and the TGI (M14 melanoma) was > 100 µM. It also gave a GI50 (HL-60(TB) leukemia) of 2.4 µM, a TGI (HL-60(TB) leukemia) of 6.48 µM and a GI50 (NCI/ADR-RES ovarian) of 3.09 µM. The TGI (NCI/ADR-RES ovarian) was 11.2 µM, the GI50 (SF-539 CNS) was 1.87 µM and the TGI (SF-539 CNS) was 3.72 µM. For the same molecule, the GI50 (UACC-257 melanoma) was 3.49 µM, the TGI (UACC-257 melanoma) was 37.8 µM and the GI50 (HCC-2998 colon) was 3.16 µM. For the same molecule, the TGI (HCC-2998 colon) was 10.5 µM, the GI50 (SK-MEL-2 melanoma) was 2.75 µM and the TGI (SK-MEL-2 melanoma) was 8.82 µM.
